Laboratory results taken from patent publication US20040156869A1, “2-substituted quinazolin-4-ylamine analogues” (Neurogen Corporation, priority 2002, published 2004).

Molecular target: human capsaicin receptor (VR1) (Homo sapiens, UniProt Q8NER1)
Experiment: Capsaicin receptor binding assay ([3H]RTX competition, VR1-transfected HEK293 membranes)
Conditions: not given

Sequence of human capsaicin receptor (VR1) (Q8NER1 whole entry): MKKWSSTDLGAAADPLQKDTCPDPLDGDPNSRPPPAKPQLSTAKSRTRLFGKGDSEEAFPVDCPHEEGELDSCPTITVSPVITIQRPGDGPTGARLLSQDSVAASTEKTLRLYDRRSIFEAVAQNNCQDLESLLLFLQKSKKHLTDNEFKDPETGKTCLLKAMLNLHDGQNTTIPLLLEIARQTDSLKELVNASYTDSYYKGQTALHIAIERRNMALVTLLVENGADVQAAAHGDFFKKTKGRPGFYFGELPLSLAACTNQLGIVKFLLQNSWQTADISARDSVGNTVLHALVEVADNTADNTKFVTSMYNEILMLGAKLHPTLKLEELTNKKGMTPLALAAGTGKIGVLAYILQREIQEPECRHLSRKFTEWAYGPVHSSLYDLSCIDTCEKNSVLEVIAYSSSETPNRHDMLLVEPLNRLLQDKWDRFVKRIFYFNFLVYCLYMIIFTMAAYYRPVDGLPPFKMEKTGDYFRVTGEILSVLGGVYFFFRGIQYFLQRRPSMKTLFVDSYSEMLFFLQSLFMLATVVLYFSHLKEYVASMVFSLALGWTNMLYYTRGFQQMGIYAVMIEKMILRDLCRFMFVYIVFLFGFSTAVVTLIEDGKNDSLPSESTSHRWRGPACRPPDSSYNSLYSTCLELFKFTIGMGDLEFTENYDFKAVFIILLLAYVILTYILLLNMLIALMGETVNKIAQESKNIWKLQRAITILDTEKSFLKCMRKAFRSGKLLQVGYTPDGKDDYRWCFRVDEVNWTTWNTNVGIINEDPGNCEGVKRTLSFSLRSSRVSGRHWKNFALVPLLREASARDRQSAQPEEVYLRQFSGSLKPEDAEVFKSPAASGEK

| SMILES | Ki [nM] |
| --- | --- |
| CC(=O)C(C)(C)c1ccc(Nc2nc(COCC(C)C)nc3nc(-c4ncccc4C(F)(F)F)ccc23)cc1 [Compound 211, 3-{4-[2-Isobutoxymethyl-7-(3-trifluoromethyl-pyridin-2-yl)-pyrido[2,3-d]pyrimidin-4-ylamino]-phenyl}-3-methyl-butan-2-one] | < 1000 |
| FC(F)(F)c1ccc(Nc2nc(COC3CCOCC3)nc3cc(-c4ncccc4C(F)(F)F)ccc23)cc1 [Compound 86, [2-(Tetrahydro-pyran-4-yloxymethyl)-7-(3-trifluoromethyl-pyridin-2-yl)-quinazolin-4-yl]-(4-trifluoromethyl-phenyl)-amine] | < 1000 |
| COCCc1nc(Nc2ccc(C(C)C)cc2)c2ccc(-c3ncccc3C(F)(F)F)cc2n1 [Compound 48, (4-Isopropyl-phenyl)-[2-(2-methoxy-ethyl)-7-(3-trifluoromethyl-pyridin-2-yl)-quinazolin-4-yl]-amine] | < 1000 |
| CC1CCCCN1CCc1nc(Nc2ccc(C(F)(F)F)cc2)c2ccc(-c3ncccc3C(F)(F)F)cc2n1 (centres unmarked) [Compound 422, [2-(2-Methyl-piperidin-1-ylethyl)-7-(3-trifluoromethyl-pyridin-2-yl)-quinazolin-4-yl]-(4-trifluoromethyl-phenyl)-amine] | < 1000 |
| CCN(CC)CCCNC(=O)c1nc(Nc2ccc(C(F)(F)F)cc2)c2ccc(-c3ncccc3C(F)(F)F)nc2n1 [Compound 441, 4-(4-Trifluoromethyl-phenylamino)-7-(3-trifluoromethyl-pyridin-2-yl)-pyrido[2,3-d]pyrimidine-2-carboxylic acid (3-diethylamino-propyl)-amide] | < 1000 |
| CCOCN(COCC)Cc1nc(Nc2ccc(C(F)(F)F)cc2)c2ccc(-c3ncccc3C)cc2n1 [Compound 725, [2-[(Bis-ethoxymethyl-amino)-methyl]-7-(3-methyl-pyridin-2-yl)-quinazolin-4-yl]-(4-trifluoromethyl-phenyl)-amine] | < 1000 |
| Cc1cccnc1-c1ccc2c(Nc3ccc(C(C)C)cc3)nc(CN(C)C(C)C)nc2c1 [Compound 718, [2-[(Isopropyl-methyl-amino)-methyl]-7-(3-methyl-pyridin-2-yl)-quinazolin-4-yl]-(4-isopropyl-phenyl)-amine] | < 1000 |
| FC(F)(F)c1ccc(Nc2nc(CCCOCc3ccccc3)nc3cc(-c4ncccc4C(F)(F)F)ccc23)cn1 [Compound 13, [2-(3-Benzyloxy-propyl)-7-(3-trifluoromethyl-pyridin-2-yl)-quinazolin-4-yl]-(6-trifluoromethyl-pyridin-3-yl)-amine] | < 1000 |
| C[C@@H]1CN(Cc2nc(Nc3ccc(C(C)(C)C)nc3)c3ccc(-c4ncccc4C(F)(F)F)cc3n2)C[C@@H](C)O1 [Compound 611, (R,R)-(6-tert-Butyl-pyridin-3-yl)-[2-(2,6-dimethyl-morpholin-4-ylmethyl)-7-(3-trifluoromethyl-pyridin-2-yl)-quinazolin-4-yl]-amine] | < 1000 |
| C[C@@H]1CN(Cc2nc(Nc3ccc(S(=O)(=O)C(F)(F)F)cc3)c3ccc(-c4ncccc4Cl)cc3n2)C[C@H](C)O1 [Compound 602, [7-(3-Chloro-pyridin-2-yl)-2-(2,6-dimethyl-morpholin-4-ylmethyl)-quinazolin-4-yl]-(4-trifluoromethanesulfonyl-phenyl)-amine (cis)] | < 1000 |
| Cc1cc(Nc2nc(COCC(C)C)nc3nc(-c4ncccc4C(F)(F)F)ccc23)ccc1Cl [Compound 274, (4-Chloro-3-methyl-phenyl)-[2-isobutoxymethyl-7-(3-trifluoromethyl-pyridin-2-yl)-pyrido[2,3-d]pyrimidin-4-yl]-amine] | < 1000 |
| CC(C)COCc1nc(Nc2ccc(CC(=O)O)cc2)c2ccc(-c3ncccc3Cl)nc2n1 [Compound 284, {4-[7-(3-Chloro-pyridin-2-yl)-2-isobutoxymethyl-pyrido[2,3-d]pyrimidin-4-ylamino]-phenyl}-acetic acid] | < 1000 |
| COCc1nc(Nc2ccc(C3(C#N)CCC3)cc2)c2ccc(-c3ncccc3C)nc2n1 [Compound 149, 1-{4-[2-Methoxymethyl-7-(3-methyl-pyridin-2-yl)-pyrido[2,3-d]pyrimidin-4-ylamino]-phenyl}-cyclobutanecarbonitrile] | < 1000 |
| CC1(C)CCCC(NC(=O)c2nc(Nc3ccc(C(F)(F)F)cc3)c3ccc(-c4ncccc4C(F)(F)F)nc3n2)C1 (centres unmarked) [Compound 468, 4-(4-Trifluoromethyl-phenylamino)-7-(3-trifluoromethyl-pyridin-2-yl)-pyrido[2,3-d]pyrimidine-2-carboxylic acid (3,3-dimethyl-cyclohexyl)-amide] | < 1000 |
| CCOCc1nc(Nc2ccc(S(=O)(=O)N3CCOCC3)cc2)c2ccc(-c3ncccc3C(F)(F)F)cc2n1 [Compound 127, [2-Ethoxymethyl-7-(3-trifluoromethyl-pyridin-2-yl)-quinazolin-4-yl]-[4-(morpholine-4-sulfonyl)-phenyl]-amine] | < 1000 |
| CCCCN(CC)CCc1nc(Nc2ccc(C(F)(F)F)cc2)c2ccc(-c3ncccc3C(F)(F)F)cc2n1 [Compound 417, [2-[(Butyl-ethyl-amino)-ethyl]-7-(3-trifluoromethyl-pyridin-2-yl)-quinazolin-4-yl]-(4-trifluoromethyl-phenyl)-amine] | < 1000 |
| C[C@@H]1CN(Cc2nc(Nc3ccc(Cl)cc3)c3ccc(-c4ncccc4Cl)cc3n2)C[C@@H](C)O1 [Compound 624, (R,R)-(4-Chloro-phenyl)-[7-(3-chloro-pyridin-2-yl)-2-(2,6-dimethyl-morpholin-4-ylmethyl)-quinazolin-4-yl]-amine] | < 1000 |
| CCCN(C)Cc1nc(Nc2ccc(C(F)(F)F)nc2)c2ccc(-c3ncccc3C(F)(F)F)cc2n1 [Compound 369, [2-[(Methyl-propyl-amino)-methyl]-7-(3-trifluoromethyl-pyridin-2-yl)-quinazolin-4-yl]-(6-trifluoromethyl-pyridin-3-yl)-amine] | < 1000 |
| C[C@@H]1CN(Cc2nc(Nc3ccc(C(C)(C)C)cc3)c3ccc(-c4ncccc4Cl)cc3n2)CCO1 [Compound 672, (R)-(4-tert-Butyl-phenyl)-[7-(3-chloro-pyridin-2-yl)-2-(2-methyl-morpholin-4-ylmethyl)-quinazolin-4-yl]-amine] | < 1000 |
| O=C(CCc1nc(Nc2ccc(C(F)(F)F)cc2)c2ccc(-c3ncccc3C(F)(F)F)cc2n1)N1CCCC1 [Compound 478, 1-Pyrrolidin-1-yl-3-[4-(4-trifluoromethyl-phenylamino)-7-(3-trifluoromethyl-pyridin-2-yl)-quinazolin-2-yl]-propan-1-one] | < 1000 |
| COCc1nc(Nc2ccc(C(F)(F)F)c(C)c2)c2ccc(-c3ncccc3Cl)nc2n1 [Compound 197, [7-(3-Chloro-pyridin-2-yl)-2-methoxymethyl-pyrido[2,3-d]pyrimidin-4-yl]-(3-methyl-4-trifluoromethyl-phenyl)-amine] | < 1000 |
| C[C@H]1CN(Cc2nc(Nc3ccc(Cl)cc3)c3ccc(-c4ncccc4C(F)(F)F)cc3n2)C[C@H](C)O1 [Compound 642, (S,S)-(4-Chloro-phenyl)-[2-(2,6-dimethyl-morpholin-4-ylmethyl)-7-(3-trifluoromethyl-pyridin-2-yl)-quinazolin-4-yIl]amine] | < 1000 |
| CC(C)COCc1nc(Nc2ccc(F)c(F)c2)c2ccc(-c3ncccc3Cl)nc2n1 [Compound 268, [7-(3-Chloro-pyridin-2-yl)-2-isobutoxymethyl-pyrido[2,3-d]pyrimidin-4-yl]-(3,4-difluoro-phenyl)-amine] | < 1000 |
| CCC(C)c1ccc(Nc2nc(COC)nc3nc(-c4ncccc4C)ccc23)cc1 (centres unmarked) [Compound 97, (4-sec-Butyl-phenyl)-[2-methoxymethyl-7-(3-methyl-pyridin-2-yl)-pyrido[2,3-d]pyrimidin-4-yl]-amine] | < 1000 |
| CCCc1ccc(Nc2nc(COCC(C)C)nc3nc(-c4ncccc4Cl)ccc23)cc1 [Compound 266, [7-(3-Chloro-pyridin-2-yl)-2-isobutoxymethyl-pyrido[2,3-d]pyrimidin-4-yl]-(4-propyl-phenyl)-amine] | < 1000 |
| CN1CCC(NC(=O)c2nc(Nc3ccc(C(F)(F)F)cc3)c3ccc(-c4ncccc4C(F)(F)F)nc3n2)CC1 [Compound 448, 4-(4-Trifluoromethyl-phenylamino)-7-(3-trifluoromethyl-pyridin-2-yl)-pyrido[2,3-d]pyrimidine-2-carboxylic acid (1-methyl-piperidin-4-yl)-amide] | < 1000 |
| COCc1nc(Nc2ccc(F)c(F)c2)c2ccc(-c3ncccc3C(F)(F)F)nc2n1 [Compound 291, (3,4-Difluoro-phenyl)-[2-methoxymethyl-7-(3-trifluoromethyl-pyridin-2-yl)-pyrido[2,3-d]pyrimidin-4-yl]-amine] | < 1000 |
| CN(C)C(=O)c1nc(Nc2ccc(C(F)(F)F)cc2)c2ccc(-c3ncccc3C(F)(F)F)cc2n1 [Compound 707, 4-(4-Trifluoromethyl-phenylamino)-7-(3-trifluoromethyl-pyridin-2-yl)-quinazoline-2-carboxylic acid dimethylamide] | < 1000 |
| COCc1nc(Nc2ccc(Cl)cc2)c2ccc(-c3ncccc3C(F)(F)F)nc2n1 [Compound 287, (4-Chloro-phenyl)-[2-methoxymethyl-7-(3-trifluoromethyl-pyridin-2-yl)-pyrido[2,3-d]pyrimidin-4-yl]-amine] | < 1000 |
| COCc1nc(Nc2ccc(C(C)C)cc2)c2ccc(-c3ncccc3C(F)(F)F)cc2n1 [Compound 72, (4-Isopropyl-phenyl)-[2-methoxymethyl-7-(3-trifluoromethyl-pyridin-2-yl)-quinazolin-4-yl]-amine] | < 1000 |

Same assay, conditions: Table III; capsaicin receptor binding

| SMILES | Ki [nM] |
| --- | --- |
| CC1CC(C)CN(Cc2nc(Nc3ccc(C(F)(F)F)nc3)c3ccc(-c4ncccc4C(F)(F)F)cc3n2)C1 (centres unmarked) [Compound 559, [2-(3,5-Dimethyl-piperidin-1-ylmethyl)-7-(3-trifluoromethyl-pyridin-2-yl)-quinazolin-4-yl]-(6-trifluoromethyl-pyridin-3-yl)-amine] | < 1000 |
| CCCN(Cc1nc(Nc2ccc(C(F)(F)F)nc2)c2ccc(-c3ncccc3C(F)(F)F)cc2n1)CC1CC1 [Compound 558, [2-[(Cyclopropylmethyl-propyl-amino)-methyl]-7-(3-trifluoromethyl-pyridin-2-yl)-quinazolin-4-yl]-(6-trifluoromethyl-pyridin-3-yl)-amine] | < 1000 |
